Data as given in patent US9944598B2, “Mono- or di-substituted indole derivatives as dengue viral replication inhibitors” (priority 2014, dated 2018).

Experiments:
Vero cells = assay: in vitro; assay type: cell-based; details: African green monkey
Protocol: In parallel, the toxicity of the compounds was assessed on the same plates. Once the read-out for the eGFP signal was done, 10 μL of resazurin, a cell viability stain, was added to all wells of the 384-well plates. The resazurin assay is based on the reduction of the blue resazurin by NADH, produced by the cells, into the highly fluorescent product, resorufin. The formation of pink fluorescent resorufin is directly related to the number of viable cells in the well. The plates were incubated for an additional 5 hours in a fully humidified incubator (37° C., 5% CO2). Next, the plates were measured on an Infinite reader (Tecan) using an excitation wavelength of 530 nm. The half maximal cytotoxic concentration (CC50) was also determined, defined as the concentration required to reduce the resazurin conversion by 50% compared to that of the cell control wells (Table 1). Finally, the selectivity index (SI) is determined for the compounds, which is calculated as followed: SI=CC50/EC50.

DENV-1 strain TC974#666 = assay: Tetravalent RT-qPCR assay Protocol A, serotype 1; assay type: cell-based; details: Dengue virus, DENV1, 72 h, RT-qPCR serotype 1 TC974#666, Vero cells, 3 days
Protocol: The antiviral activity of the compounds of the invention was tested against DENV-1 strain TC974#666 (NCPV), DENV-2 strain 16681, DENV-3 strain H87 (NCPV) and DENV-4 strains H241 (NCPV) and EDEN (SG/06K2270DK1/2005; GenBank accession number QG398256) in a RT-qPCR assay. Therefore, Vero cells were infected with either DENV-1, or -2, or -3, or -4 in the presence or absence of test compounds. At day 3 post-infection, the cells were lysed and cell lysates were used to prepare cDNA of both a viral target (the 3′UTR of DENV; table 2) and a cellular reference gene (β-actin, table 2). Subsequently, a duplex real time PCR was performed on a Lightcycler480 instrument. The generated Cp value is inversely proportional to the amount of RNA expression of these targets. Inhibition of DENV replication by a test compound result in a shift of Cp's for the 3′UTR gene. On the other hand, if a test compound is toxic to the cells, a similar effect on β-actin expression will be observed. The comparative ΔΔCp method is used to calculate EC50, which is based on the relative gene expression of the target gene (3′UTR) normalized with the cellular housekeeping gene (β-actin). In addition, CC50 values were determined based on the Cp values acquired for the housekeeping gene β-actin.
The culture medium consisted of minimal essential medium supplemented with 2% of heat-inactivated fetal calf serum, 0.04% gentamycin (50 mg/mL) and 2 mM of L-glutamine. Vero cells, obtained from ECACC, were suspended in culture medium and 75 μL/well was added in 96-well plates (10000 cells/well), which already contain the antiviral compounds. Typically, these plates contain a 4-fold serial dilution of 9 dilution steps of the test compound at 200 times the final concentration in 100% DMSO (500 nL; final concentration range: 25 μM-0.00038 μM). In addition, each plate contains wells which are assigned as virus controls (containing cells and virus in the absence of compound) and cell controls (containing cells in the absence of virus and compound). Once the cells were added in the plates, the plates were incubated in a fully humidified incubator (37° C., 5% CO2) until the next day. Then, DENV-1 strain TC974#666, DENV-2 strain 16681, DENV-3 strain H87 or DENV-4 strains H241 or EDEN were added. […] In parallel, 25 μL of culture medium was added to the cell controls. Next, the plates were incubated for 3 days in a fully humidified incubator (37° C., 5% CO2). After 3 days, the supernatant was removed from the wells and the cells were washed twice with ice-cold PBS (˜100 μL). The cell pellets within the 96-well plates were stored at −80° C. for at least 1 day. Next, RNA was extracted using the Cells-to-CT™ lysis kit, according to the manufacture's guideline (Applied Biosystems). The cell lysates can be stored at −80° C. or immediately used in the reverse transcription step.
In preparation of the reverse transcription step, mix A (table 3A) was prepared and 7.57 μL/well was dispensed in a 96-well plate. After addition of 5 μL of the cell lysates, a five minute denaturation step at 75° C. was performed (table 3B). Afterwards, 7.43 μL of mix B was added (table 3C) and the reverse transcription step was initiated (table 3D) to generate cDNA.
Finally, a RT-qPCR mix was prepared, mix C (table 4A), dispensed in 96-well LightCycler qPCR plates to which 3 μL of cDNA was added and the qPCR was performed according to the conditions in table 4B on a LightCycler 480.
Using the LightCycler software and an in-house LIMS system, dose response curves for each compound were calculated and the half maximal effective concentration (EC50) and the half maximal cytotoxic concentration (CC50) were determined (Tables 6-9).

[1] = Chiral stability at pH 7.4 (enantiomeric excess by Chiral SFC); assay type: physicochemical
Protocol: The chiral stability of Enantiomer 1A (R=OMe) was evaluated by determination of the enantiomeric excess (ee %) after incubation for 24 h and 48 h in a buffered solution at pH 7.4 at 40° C. and 60° C. To assess the influence of the methoxy-substituent of Enantiomer 1A (R=OMe) on the stability against racemization, the chiral stability of Enantiomer 1′A (R═H) was tested under the same conditions.
To this end, 5 μM buffered (pH=7.4) solutions of 1A and 1′A were prepared by mixing 25 μL of a 100 μM solution of 1A or 1′A in DMSO with 475 μL aqueous buffer pH 7.4. Samples were taken 24 h and 48 h after incubation at 40° C. and 60° C. The analytical samples were analyzed by Chiral SFC (MS detection) and the chiral purity was expressed as the enantiomeric excess (ee %=% enantiomer A−% enantiomer B).

Compound | EC50 (DENV-1 strain TC974#666) [nM] | further results
COc1cc(NC(C(=O)c2c[nH]c3cc(F)c(F)cc23)c2ccc(Cl)cc2OC)cc(OCCO)c1 (single isomer, unassigned) [Compound 9A, 2-(4-chloro-2-methoxyphenyl)-1-(5,6-difluoro-1H-indol-3-yl)-2-((3-(2-hydroxyethoxy)-5-methoxyphenyl)amino)ethanone] | 5 | CC50 (Vero cells): 6500 nM
COc1cc(NC(C(=O)c2c[nH]c3c(C)cc(F)cc23)c2ccc(Cl)cc2OC)cc(OCCO)c1 (single isomer, unassigned) [Compound 8A, 2-(4-chloro-2-methoxyphenyl)-1-(5-fluoro-7-methyl-1H-indol-3-yl)-2-((3-(2-hydroxyethoxy)-5-methoxyphenyl)amino)ethanone] | 9.6 | 
COc1cc(NC(C(=O)c2c[nH]c3c(F)cc(C)cc23)c2ccc(Cl)cc2OC)cc(OCCO)c1 (single isomer, unassigned) [Compound 10A, 2-(4-chloro-2-methoxyphenyl)-1-(7-fluoro-5-methyl-1H-indol-3-yl)-2-((3-(2-hydroxyethoxy)-5-methoxyphenyl)amino)ethanone] | 14 | 
COc1cc(NC(C(=O)c2c[nH]c3cc(Cl)ccc23)c2ccc(Cl)cc2OC)cc(OCCO)c1 (single isomer, unassigned) [Compound 4A, 1-(6-chloro-1H-indol-3-yl)-2-(4-chloro-2-methoxyphenyl)-2-((3-(2-hydroxyethoxy)-5-methoxyphenyl)amino)ethanone] | 7.8 | 
COc1cc(NC(C(=O)c2c[nH]c3c(F)c(F)ccc23)c2ccc(Cl)cc2OC)cc(OCCO)c1 (single isomer, unassigned) [Compound 11B, 2-(4-chloro-2-methoxyphenyl)-1-(6,7-difluoro-1H-indol-3-yl)-2-((3-(2-hydroxyethoxy)-5-methoxyphenyl)amino)ethanone] | 18 | CC50 (Vero cells): 4100 nM
COc1cc(NC(C(=O)c2c[nH]c3cc(F)ccc23)c2ccc(Cl)cc2OC)cc(OCCO)c1 (single isomer, unassigned) [Compound 1A, 2-(4-chloro-2-methoxyphenyl)-1-(6-fluoro-1H-indol-3-yl)-2-((3-(2-hydroxyethoxy)-5-methoxyphenyl)amino)ethanone] | 7.7 | ee % ([1]; 5 μM buffered solution pH 7.4, 40° C., 24 h): 100%; ee % ([1]; 5 μM buffered solution pH 7.4, 40° C., 48 h): 100%; ee % ([1]; 5 μM buffered solution pH 7.4, 60° C., 24 h): 99%; ee % ([1]; 5 μM buffered solution pH 7.4, 60° C., 48 h): 96%
COc1cc(NC(C(=O)c2c[nH]c3c(C)c(F)ccc23)c2ccc(Cl)cc2OC)cc(OCCO)c1 (single isomer, unassigned) [Compound 2A, 2-(4-chloro-2-methoxyphenyl)-1-(6-fluoro-7-methyl-1H-indol-3-yl)-2-((3-(2-hydroxyethoxy)-5-methoxyphenyl)amino)ethanone] | 7.1 | 
COc1cc(NC(C(=O)c2c[nH]c3cc(OC)c(F)cc23)c2ccc(Cl)cc2OC)cc(OCCO)c1 (single isomer, unassigned) [Compound 7A, 2-(4-chloro-2-methoxyphenyl)-1-(5-fluoro-6-methoxy-1H-indol-3-yl)-2-((3-(2-hydroxyethoxy)-5-methoxyphenyl)amino)ethanone] | 16 | 
COc1cc(NC(C(=O)c2c[nH]c3c(C)c(Cl)ccc23)c2ccc(Cl)cc2OC)cc(OCCO)c1 (single isomer, unassigned) [Compound 3A, 2-(4-chloro-2-methoxyphenyl)-1-(6-chloro-7-methyl-1H-indol-3-yl)-2-((3-(2-hydroxyethoxy)-5-methoxyphenyl)amino)ethanone] | 5.3 | 
COc1cc(NC(C(=O)c2c[nH]c3cc(OC)ccc23)c2ccc(Cl)cc2OC)cc(OCCO)c1 (single isomer, unassigned) [Compound 5A, 2-(4-chloro-2-methoxyphenyl)-2-((3-(2-hydroxyethoxy)-5-methoxyphenyl)amino)-1-(6-methoxy-1H-indol-3-yl)ethanone] | 13 | 
COc1cc(NC(C(=O)c2c[nH]c3cc(OC)c(C)cc23)c2ccc(Cl)cc2OC)cc(OCCO)c1 (single isomer, unassigned) [Compound 6A, 2-(4-chloro-2-methoxyphenyl)-2-((3-(2-hydroxyethoxy)-5-methoxyphenyl)amino)-1-(6-methoxy-5-methyl-1H-indol-3-yl)ethanone] | 3.6 | 
